According to ChEMBL document CHEMBL4346760, “Alkynamide phthalazinones as a new class of TbrPDEB1 inhibitors (Part 2)” (Bioorg Med Chem, 2019):
Active and inactive are the calls of the source. The calls are words filed in the database; no cut-off is given here.

Tests used:
[1] = biological target: T1, Class 1 phosphodiesterase PDEB1 (Trypanosoma brucei, UniProt Q8WQX9); assay: Inhibition of Trypanosoma brucei PDEB1 catalytic domain using cAMP as substrate incubated for 20 mins by PDELight HTS cAMP phosphodiesterase Kit based luminometry
T1 sequence (Q8WQX9 whole entry): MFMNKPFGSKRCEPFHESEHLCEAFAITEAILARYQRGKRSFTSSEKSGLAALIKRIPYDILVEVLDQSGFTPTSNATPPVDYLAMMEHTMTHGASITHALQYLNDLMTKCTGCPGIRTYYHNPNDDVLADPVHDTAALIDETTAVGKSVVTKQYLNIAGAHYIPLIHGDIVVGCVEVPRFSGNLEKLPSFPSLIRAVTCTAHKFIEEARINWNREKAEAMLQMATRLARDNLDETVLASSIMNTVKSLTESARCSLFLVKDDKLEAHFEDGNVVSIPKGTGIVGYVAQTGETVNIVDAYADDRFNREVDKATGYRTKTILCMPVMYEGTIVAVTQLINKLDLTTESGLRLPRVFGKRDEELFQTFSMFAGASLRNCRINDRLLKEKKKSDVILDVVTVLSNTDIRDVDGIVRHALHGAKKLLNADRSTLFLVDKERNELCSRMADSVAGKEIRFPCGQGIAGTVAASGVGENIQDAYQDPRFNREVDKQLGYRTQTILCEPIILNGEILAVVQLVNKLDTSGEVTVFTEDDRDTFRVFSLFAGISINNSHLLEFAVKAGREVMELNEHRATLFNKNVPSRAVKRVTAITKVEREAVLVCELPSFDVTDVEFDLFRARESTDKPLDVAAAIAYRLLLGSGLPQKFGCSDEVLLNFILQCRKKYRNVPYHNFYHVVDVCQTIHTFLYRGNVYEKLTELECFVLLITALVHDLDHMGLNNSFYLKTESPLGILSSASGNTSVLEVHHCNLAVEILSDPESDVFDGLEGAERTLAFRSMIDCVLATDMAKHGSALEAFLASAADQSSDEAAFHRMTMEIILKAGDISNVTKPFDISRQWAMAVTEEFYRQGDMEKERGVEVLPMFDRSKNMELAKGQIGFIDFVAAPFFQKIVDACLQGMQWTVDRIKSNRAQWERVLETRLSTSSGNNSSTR

Trypanosoma brucei [2] = assay: Antitrypanosomal activity against Trypanosoma brucei Squib 427 trypomastigotes assessed as reduction in parasite growth incubated for 72 hrs by resazurin dye-based fluorimetric analysis; assay type: functional, organism-based; conditions: Squib 427, 72 h
[3] = Cytotoxicity against human MRC5 cells assessed as reduction in cell viability incubated for 72 hrs by resazurin dye-based fluorimetric analysis
[4] = biological target: 3',5'-cyclic-AMP phosphodiesterase 4B (Homo sapiens, UniProt Q07343); assay: Inhibition of human PDE4B catalytic domain using cAMP as substrate incubated for 20 mins by PDELight HTS cAMP phosphodiesterase Kit based luminometry
[5] = Selectivity index, ratio of pKi for Trypanosoma brucei PDEB1 to pKi for human PDE4B using cAMP as substrate incubated for 20 mins by PDELight HTS cAMP phosphodiesterase Kit based luminometry
[6] = biological target: T2, 3',5'-cyclic-AMP phosphodiesterase 4D (Homo sapiens, UniProt Q08499); assay: Binding affinity to human PDE4D assessed as dissociation constant treated for 320 secs measured for 900 secs by SPR assay
[7] = biological target: T1, Class 1 phosphodiesterase PDEB1; assay: Binding affinity to Trypanosoma brucei PDEB1 assessed as dissociation constant treated for 320 secs measured for 900 secs by SPR assay
Trypanosoma brucei [8] = assay: Antitrypanosomal activity against bloodstream form of Trypanosoma brucei 221 cells assessed as blockade in cytokinesis with multiple flagella and nuclei formation at 1 uM incubated for 24 to 48 hrs by DAPI/PFR-staining based fluorescence microscopy; assay type: functional, organism-based
Trypanosoma brucei [9] = assay: Antitrypanosomal activity against procyclic form of Trypanosoma brucei 2913 assessed as increase in intracellular cAMP level at 1 to 10 uM by cAMP sensor based FRET assay; assay type: functional, organism-based
[10] = biological target: T2, 3',5'-cyclic-AMP phosphodiesterase 4D; assay: Binding affinity to human PDE4D assessed as dissociation constant treated for 60 secs measured for 300 secs by SPR assay
[11] = biological target: T1, Class 1 phosphodiesterase PDEB1; assay: Binding affinity to Trypanosoma brucei PDEB1 assessed as dissociation constant treated for 60 secs measured for 300 secs by SPR assay

3',5'-cyclic-AMP phosphodiesterase 4B, sequence (Q07343 whole entry, the tested form may be a part): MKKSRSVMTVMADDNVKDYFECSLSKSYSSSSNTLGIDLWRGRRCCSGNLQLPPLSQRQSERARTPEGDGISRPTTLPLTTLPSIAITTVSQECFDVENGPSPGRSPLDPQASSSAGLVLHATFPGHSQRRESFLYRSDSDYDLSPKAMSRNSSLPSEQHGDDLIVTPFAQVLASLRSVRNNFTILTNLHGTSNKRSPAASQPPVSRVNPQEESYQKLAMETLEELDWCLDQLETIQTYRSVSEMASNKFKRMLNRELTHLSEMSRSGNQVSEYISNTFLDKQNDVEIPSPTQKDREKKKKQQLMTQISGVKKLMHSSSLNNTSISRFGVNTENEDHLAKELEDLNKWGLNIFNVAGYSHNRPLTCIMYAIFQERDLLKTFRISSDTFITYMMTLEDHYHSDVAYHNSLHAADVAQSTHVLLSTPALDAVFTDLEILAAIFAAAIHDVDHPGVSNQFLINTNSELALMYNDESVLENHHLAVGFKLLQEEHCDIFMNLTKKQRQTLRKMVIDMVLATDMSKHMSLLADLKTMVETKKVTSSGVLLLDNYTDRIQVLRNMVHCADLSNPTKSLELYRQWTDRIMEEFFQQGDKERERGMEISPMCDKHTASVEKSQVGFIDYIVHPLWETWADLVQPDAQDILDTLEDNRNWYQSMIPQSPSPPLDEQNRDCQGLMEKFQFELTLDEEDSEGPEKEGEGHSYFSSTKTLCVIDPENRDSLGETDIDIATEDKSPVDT
T2 sequence (Q08499 whole entry): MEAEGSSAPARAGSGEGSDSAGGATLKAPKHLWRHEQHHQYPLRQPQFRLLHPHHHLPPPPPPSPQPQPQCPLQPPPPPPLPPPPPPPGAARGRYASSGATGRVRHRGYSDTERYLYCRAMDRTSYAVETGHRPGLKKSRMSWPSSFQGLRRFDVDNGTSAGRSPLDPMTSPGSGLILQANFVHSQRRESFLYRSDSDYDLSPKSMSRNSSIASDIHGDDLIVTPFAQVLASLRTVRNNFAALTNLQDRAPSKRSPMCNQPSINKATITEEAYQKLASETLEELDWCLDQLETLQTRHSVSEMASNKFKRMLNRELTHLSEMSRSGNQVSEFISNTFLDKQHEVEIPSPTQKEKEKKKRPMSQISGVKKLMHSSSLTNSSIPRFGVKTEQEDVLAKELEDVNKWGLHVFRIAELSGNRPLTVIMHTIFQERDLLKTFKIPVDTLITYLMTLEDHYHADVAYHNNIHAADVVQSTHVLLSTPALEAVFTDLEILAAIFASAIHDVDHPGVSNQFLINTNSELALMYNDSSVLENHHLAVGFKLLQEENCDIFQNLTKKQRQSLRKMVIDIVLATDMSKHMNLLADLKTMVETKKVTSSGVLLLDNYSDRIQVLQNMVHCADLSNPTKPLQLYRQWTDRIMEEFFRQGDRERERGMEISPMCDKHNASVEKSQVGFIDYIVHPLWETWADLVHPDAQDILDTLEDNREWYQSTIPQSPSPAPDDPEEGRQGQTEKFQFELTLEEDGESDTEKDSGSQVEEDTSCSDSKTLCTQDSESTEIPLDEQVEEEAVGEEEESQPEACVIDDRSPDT

Structure (SMILES)	Ki [1] [nM]	IC50 (Trypanosoma brucei [2]) [nM]	CC50 at 72 h [3] [nM]	Ki [4] [nM]	Ratio pKi [5]	Kd [6] [nM]	Kd [7] [nM]	Activity (Trypanosoma brucei [8])	Activity (Trypanosoma brucei [9])	Kd [10] [nM]	Kd [11] [nM]
COc1ccc(C2=NN(C(C)C)C(=O)[C@@H]3CC=CC[C@H]23)cc1C#CC(=O)NCc1cnn(C)c1	126	1580	20000	631							
COc1ccc(C2=NN(C3CCCCCC3)C(=O)[C@@H]3CC=CC[C@H]23)cc1C#CC(N)=O	631			316							
COc1ccc(C2=NN(C3CCCCCC3)C(=O)[C@@H]3CC=CC[C@H]23)cc1-c1ccc(C(=O)NCC(N)=O)cc1					1						
COc1ccc(C2=NN(C(C)C)C(=O)[C@@H]3CC=CC[C@H]23)cc1C#CC(=O)NCCCn1ccnc1 (relative stereo)	398	7940	251	631							
COc1ccc(C2=NN(C(C)C)C(=O)[C@@H]3CC=CC[C@H]23)cc1C#CC(=O)NCc1ccccc1 (relative stereo)	158	631	> 63100	794		79.4	79.4	Active	Active		
COc1ccc(C2=NN(C(C)C)C(=O)[C@@H]3CC=CC[C@H]23)cc1C#CC(=O)NCc1ccc(C)o1 (relative stereo)	200	3160	> 63100	200							
COc1ccc(C2=NN(C(C)C)C(=O)[C@@H]3CC=CC[C@H]23)cc1C#CC(=O)NCCc1cccs1 (relative stereo)	398	2510	> 63100	794							
COc1ccc(C2=NN(C(C)C)C(=O)[C@@H]3CC=CC[C@H]23)cc1C#CC(=O)NCCc1ccccc1F (relative stereo)	316	2000	> 63100	794							
COc1ccc(C2=NN(C(C)C)C(=O)[C@@H]3CC=CC[C@H]23)cc1C#CC(=O)NCc1ccco1 (relative stereo)	126	2510	> 63100	398							
COc1ccc(C2=NN(C(C)C)C(=O)[C@@H]3CC=CC[C@H]23)cc1C#CC(=O)NCc1sc(C)nc1C (relative stereo)	200	2000	7940	251							
COc1ccc(C2=NN(C(C)C)C(=O)[C@@H]3CC=CC[C@H]23)cc1C#CC(=O)NCc1cccnc1 (relative stereo)	100	1260	3980	501							
COc1cccc(NC(=O)C#Cc2cc(C3=NN(C(C)C)C(=O)[C@@H]4CC=CC[C@H]34)ccc2OC)c1 (relative stereo)	200	1580	> 63100	1000							
COc1ccc(C2=NN(C(C)C)C(=O)[C@@H]3CC=CC[C@H]23)cc1C#CC(=O)N1CC(C#N)C1 (relative stereo)	631	7940	7940	398							
COc1ccc(C2=NN(C(C)C)C(=O)[C@@H]3CC=CC[C@H]23)cc1C#CC(=O)NCc1ccncc1 (relative stereo)	100	1000	31600	631				Active	Active		
COc1ccc(C2=NN(C(C)C)C(=O)[C@@H]3CC=CC[C@H]23)cc1C#CC(N)=O (relative stereo)	501	6310	31600	316						251	794
COc1ccc(C2=NN(C(C)C)C(=O)[C@@H]3CC=CC[C@H]23)cc1C#CC(=O)Nc1cnn(C)n1 (relative stereo)	2510	> 63100	10000	501							
COc1ccc(C2=NN(C(C)C)C(=O)[C@@H]3CC=CC[C@H]23)cc1C#CC(=O)N1CCOCC1 (relative stereo)	1000	10000	31600	794							
COc1ccc(C2=NN(C(C)C)C(=O)[C@@H]3CC=CC[C@H]23)cc1C#CC(=O)NCC1CCC1 (relative stereo)	316	6310	> 63100	794							
COc1ccc(C2=NN(C(C)C)C(=O)[C@@H]3CC=CC[C@H]23)cc1C#CC(=O)NCCc1nccs1 (relative stereo)	251	5010	10000	398							
COc1ccc(C2=NN(C(C)C)C(=O)[C@@H]3CC=CC[C@H]23)cc1C#CC(=O)Nc1ccn(CCCC#N)n1 (relative stereo)	794	2000	7940	1260							
COc1ccc(C2=NN(C(C)C)C(=O)[C@@H]3CC=CC[C@H]23)cc1C#CC(=O)NCc1cccs1 (relative stereo)	126	1000	63100	501							
CCCCNC(=O)C#Cc1cc(C2=NN(C(C)C)C(=O)[C@@H]3CC=CC[C@H]23)ccc1OC (relative stereo)	316	7940	> 63100	501							
COc1ccc(C2=NN(C(C)C)C(=O)[C@@H]3CC=CC[C@H]23)cc1C#CC(=O)NCCC#N (relative stereo)	1000	25100	31600	794							
COc1ccc(C2=NN(C(C)C)C(=O)[C@@H]3CC=CC[C@H]23)cc1C#CC(=O)NCC1CC1 (relative stereo)	398	7940	> 63100	316							
COc1ccc(C2=NN(C(C)C)C(=O)[C@@H]3CC=CC[C@H]23)cc1C#CC(=O)NCc1csc(C)n1 (relative stereo)	316	2000	12600	1000							
COc1ccc(C2=NN(C(C)C)C(=O)[C@@H]3CC=CC[C@H]23)cc1C#CC(=O)NCC1CCCO1 (relative stereo)	398	7940	31600	1260							
